Results published in the supplement of paper PMC10307832.

What follows are cell lines tested with CCN1CCN(c2ccc(Nc3cc(N(C)C(=O)Nc4c(Cl)c(OC)cc(OC)c4Cl)ncn3)cc2)CC1 [BGJ398] + COc1cc2c(Oc3ccc(NC(=O)C4(C(=O)Nc5ccc(F)cc5)CC4)cc3F)ccnc2cc1OCCCN1CCOCC1 [Foretinib] (partner 0.25 µM) (assay: relative viability (nuclei count vs DMSO), 5 days (fraction); higher = more cells survive). Conditions: first compound 0.01 µM.
In short: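 Lung cancer cell lines in 1536-well plates were dosed by pin tool the day after seeding, either with one drug alone or with a fixed anchor-drug dose plus five library-drug doses (not always all listed) in √10 steps. After 5 days, cells were fixed and their nuclei stained in one step (final 0.05% Triton X-100, 1% formaldehyde, 1 ug/ml Hoechst), then counted on 4× images. Relative viability is the nuclei count in treated wells divided by that in vehicle wells. Values are medians of duplicate plates.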
Work on COR-L23 yielded a relative viability of 0.955.
Cell Line COR-L 105 has a relative viability of 1.05.
In the case of LOU-NH91, the relative viability is reported as 0.943.
Work on ChaGo-K-1 yielded a relative viability of 0.899.
NCI-H2170 showed a relative viability of 1.02.
NCI-H2405 showed a relative viability of 1.03.
HOP-62 was tested, and the relative viability was 0.939.
Cell Line LU99A has a relative viability of 0.761.
Work on BEN yielded a relative viability of 0.722.
HARA gave a relative viability of 0.941.
Cell Line HCC-78 has a relative viability of 0.563.
Work on NCI-H322M yielded a relative viability of 1.03.
In the case of LCLC-97TM1, the relative viability is reported as 0.813.
Cell Line NCI-H2009 has a relative viability of 1.11.
A-427 gave a relative viability of 1.09.

Same assay, conditions: first compound 0.03162 µM
Work on COR-L23 yielded a relative viability of 1.09.
COR-L 105 was tested, and the relative viability was 1.13.
Work on ChaGo-K-1 yielded a relative viability of 0.991.
Cell Line NCI-H2170 has a relative viability of 1.04.
With NCI-H2405 the relative viability was 1.1.
HOP-62 showed a relative viability of 1.13.
For LU99A, the relative viability was 0.804.
For BEN, the relative viability was 0.866.
For HARA, the relative viability was 0.901.
HCC-78 gave a relative viability of 0.597.
NCI-H322M was tested, and the relative viability was 0.896.
In the case of LCLC-97TM1, the relative viability is reported as 0.923.
NCI-H2009 showed a relative viability of 1.24.
A-427 was tested, and the relative viability was 0.919.

Same assay, conditions: first compound 0.1 µM
COR-L23 was tested, and the relative viability was 1.04.
With COR-L 105 the relative viability was 1.09.
Work on LOU-NH91 yielded a relative viability of 0.975.
ChaGo-K-1 was tested, and the relative viability was 0.914.
NCI-H2170 showed a relative viability of 1.06.
In the case of NCI-H2405, the relative viability is reported as 1.1.
Work on HOP-62 yielded a relative viability of 1.18.
With LU99A the relative viability was 0.855.
Cell Line BEN has a relative viability of 0.568.
HARA was tested, and the relative viability was 0.829.
In the case of HCC-78, the relative viability is reported as 0.504.
In the case of NCI-H322M, the relative viability is reported as 1.07.
For LCLC-97TM1, the relative viability was 0.947.
NCI-H2009 was tested, and the relative viability was 1.22.
Cell Line A-427 has a relative viability of 0.954.

Same assay, conditions: first compound 0.3162 µM
COR-L23 gave a relative viability of 0.865.
Cell Line COR-L 105 has a relative viability of 1.07.
With LOU-NH91 the relative viability was 0.563.
For ChaGo-K-1, the relative viability was 1.01.
NCI-H2170 showed a relative viability of 0.977.
With NCI-H2405 the relative viability was 1.09.
With HOP-62 the relative viability was 1.19.
In the case of LU99A, the relative viability is reported as 0.897.
BEN was tested, and the relative viability was 0.395.
With HARA the relative viability was 0.905.
With HCC-78 the relative viability was 0.614.
In the case of NCI-H322M, the relative viability is reported as 0.966.
LCLC-97TM1 gave a relative viability of 0.925.
For NCI-H2009, the relative viability was 1.22.
Work on A-427 yielded a relative viability of 0.715.

Same assay, conditions: first compound 1 µM
Cell Line COR-L23 has a relative viability of 1.14.
COR-L 105 showed a relative viability of 0.892.
Work on LOU-NH91 yielded a relative viability of 0.951.
ChaGo-K-1 was tested, and the relative viability was 0.907.
With NCI-H2170 the relative viability was 1.04.
NCI-H2405 gave a relative viability of 0.972.
HOP-62 was tested, and the relative viability was 1.07.
LU99A gave a relative viability of 0.756.
BEN was tested, and the relative viability was 0.453.
HARA showed a relative viability of 0.79.
HCC-78 showed a relative viability of 0.549.
In the case of NCI-H322M, the relative viability is reported as 0.958.
In the case of LCLC-97TM1, the relative viability is reported as 1.03.
NCI-H2009 was tested, and the relative viability was 1.26.
With A-427 the relative viability was 0.623.
